Experimental data from PubChem BioAssay (NCI).
“And” between values parts separate entries of the source, which are not always exact repeats. Equal entries are not always repeated.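 Method: 48-hour compound exposure of cells in 96-well plates, five concentrations, linear interpolation of endpoints. GI50 marks 50% less growth. TGI is the concentration that stops growth completely.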

What was measured:
Assay in all cases: NCI tumour cell line growth inhibition, 48 h
[1] = system: IGROV1 ovarian
[2] = system: SF-295 CNS
[3] = system: KM12 colon
[4] = system: COLO 205 colon
[5] = system: RXF 393 renal
[6] = system: NCI/ADR-RES ovarian
[7] = system: A498 renal
[8] = system: NCI-H522 lung
[9] = system: SF-539 CNS
[10] = system: ACHN renal

Row | Compound | GI50 [1] | TGI [1] | GI50 [2] | TGI [2] | GI50 [3] | TGI [3] | GI50 [4] | TGI [4] | GI50 [5] | TGI [5] | GI50 [6] | TGI [6] | GI50 [7] | TGI [7] | GI50 [8] | TGI [8] | GI50 [9] | TGI [9] | GI50 [10] | TGI [10]
1 | CN1CCC(C(=O)Nc2n[nH]c3nnc(-c4ccccc4)cc23)CC1 | > 25 µM | > 25 µM | 17.5 µM | > 25 µM | 19.4 µM | > 25 µM | > 25 µM | > 25 µM | 12.3 µM | > 25 µM | > 25 µM | > 25 µM | 5.67 µM | > 21.5 µM | > 25 µM | > 25 µM | 11.7 µM | > 25 µM | > 25 µM | > 25 µM
2 | COc1ccc(-c2nc3sccn3c2/C=C/C(=O)c2cc(OC)c(OC)c(OC)c2)cc1 | 1.24 µM |  | 2.91 µM | 18.3 µM | 2.56 µM | 7.75 µM | 2.82 µM | 13 µM | 3.09 µM | > 100 µM | 2.66 µM | > 28 µM | 2.52 µM | 6.41 µM | 4.16 µM | > 22.2 µM | 1.79 µM | 4.96 µM | 3.45 µM | > 60.9 µM
3 | CCCC/C=C1/CCC(CN(C)C)C1=O (centres undefined) |  | 10.1 µM |  | 13 µM |  | 2.31 µM |  | 3.04 µM |  | 3.38 µM |  | 15 µM |  | 15.9 µM |  | 1.39 µM |  | 6.05 µM |  | 4.6 µM
4 | CC(=O)OCCc1cc2ccccc2oc1=O |  | > 100 µM |  | > 100 µM |  | > 100 µM |  | > 100 µM |  | > 100 µM |  | > 100 µM |  | > 100 µM |  | > 100 µM |  | > 100 µM |  | > 100 µM
5 | O=C([CH-]C(=O)c1ccccc1)c1ccccc1.[CH2-]C.[CH2-]C.[Tl+3] | 24.4 µM | > 100 µM | 15.6 µM | > 100 µM | 49.6 µM | > 100 µM | 26.6 µM | > 100 µM | 16.5 µM | 88.7 µM | 26.1 µM | > 100 µM | 48.9 µM | > 100 µM | 21.5 µM | > 85.2 µM | 23.2 µM | 86 µM | 24.5 µM | 98.7 µM
6 | CN(Cc1cnc2nc(N)nc(N)c2n1)c1c(Cl)cc(C(=O)NC(CCC(=O)O)C(=O)O)cc1Br (centres undefined) | < 0.01 µM | 18.2 µM | < 0.01 µM |  | < 0.01 µM | > 100 µM | 0.0535 µM | > 100 µM | 0.345 µM | > 100 µM | < 0.01 µM | > 100 µM | 0.0302 µM | > 100 µM | 0.0391 µM | > 100 µM | < 0.01 µM | > 100 µM | < 0.01 µM | > 100 µM
7 | C#CCN(CCCOc1ccc(Cl)cc1Cl)CCCSC(=O)CCCCCN1/C(=C\C=C2/CCCC(/C=C/C3=[N+](CCCCCC(=O)[O-])c4ccccc4C3(C)C)=C2Cl)C(C)(C)c2ccccc21 | 1.42 µM | 3.34 µM | 1.91 µM | 4.06 µM | 1.56 µM | 4.46 µM | 1.41 µM | 3.39 µM | 1.66 µM | 3.37 µM | 20.2 µM | 62.3 µM | 1.31 µM | 4.12 µM | 1.16 µM | 3.34 µM | 1.2 µM | 2.71 µM | 2.65 µM | 7.5 µM
8 | NCC[PH+](c1ccccc1)c1ccccc1.NCC[PH+](c1ccccc1)c1ccccc1.[Cl-].[Pt+4] | 29.3 µM | > 100 µM | > 100 µM | > 100 µM | > 100 µM | > 100 µM | > 100 µM | > 100 µM | > 100 µM | > 100 µM | > 100 µM | > 100 µM | > 100 µM | > 100 µM | > 87.1 µM | > 100 µM | > 100 µM | > 100 µM | > 100 µM | > 100 µM
9 | CCCCCCC1CCCCN1C(c1ccccc1)C(O)c1ccccc1 (centres undefined) | 8.62 µM | 22 µM | 4.31 µM | 18.4 µM | 6.07 µM | 19.4 µM | 3.09 µM | 11.4 µM | 2.18 µM | 6.77 µM | 10.1 µM | 22.9 µM | 11.1 µM | 23.5 µM | 5.1 µM | 18.5 µM | 11.6 µM | 24.3 µM | 10 µM | 21.6 µM
10 | Cc1nc2sc(C(=O)Nc3cccc(Cl)c3)c(N)c2cc1C(O)c1ccccc1 (centres undefined) | 2.27 µM | 17 µM | 1.21 µM | 13.5 µM | 0.577 µM | 24.5 µM | 3.31 µM | > 100 µM | 0.722 µM | 11.5 µM | 0.929 µM | 13.1 µM | 0.181 µM | 0.815 µM | 1.15 µM | 18.3 µM | 0.546 µM | 7.25 µM | 0.884 µM | 13.4 µM
11 | O=C(/C=C/c1ccccn1)c1ccccc1 | 3.84 µM | 85.3 µM | 15.7 µM | 32.2 µM | 4.13 µM | 15.5 µM | 4.04 µM | 14.6 µM | 3.17 µM | 13.1 µM | 3.01 µM | 12.1 µM | 14.9 µM | 28.3 µM | 1.65 µM | 3.1 µM | 4.37 µM | 18.3 µM | 2.44 µM | 6.2 µM
12 | COc1ccc2c(c1)CCC1C2CCC2(C)C(NC(=O)CCCCC3CCSS3)CCC12 (centres undefined) | 4.92 µM | > 100 µM | > 100 µM | > 100 µM | 4.54 µM | > 100 µM | 5.49 µM | > 100 µM | 27 µM | > 100 µM | > 100 µM | > 100 µM | 62.2 µM | > 100 µM | 9.4 µM | > 100 µM | > 100 µM | > 100 µM | 27.6 µM | > 100 µM
13 | Cc1nc(Nc2ccc(Cl)c(Cl)c2)sc1C(/C=C/c1ccc2c(c1)OCO2)=N/Nc1ccc([N+](=O)[O-])cc1[N+](=O)[O-] |  | > 100 µM |  | > 100 µM |  | > 100 µM |  | > 100 µM |  | 67.2 µM |  | > 100 µM |  | > 100 µM |  | > 100 µM |  | > 91.6 µM |  | > 100 µM
14 | Nc1nc2c(ncn2C2OC(CO)C(O)C2O)c(=O)[nH]1 (centres undefined) | > 100 µM | > 100 µM and 170 µM |  | > 100 µM and 184 µM | > 100 µM | > 100 µM and 224 µM | > 100 µM | > 100 µM and 113 µM |  | 162 µM | > 100 µM | > 100 µM and 238 µM |  | 8.79 µM | > 100 µM | > 100 µM and 149 µM | > 100 µM | > 100 µM and 160 µM | > 100 µM | > 100 µM
15 | Cc1ncc([N+](=O)[O-])n1CCOc1ccc(C(=O)/C=C/c2ccc(C(F)(F)F)cc2)cc1 | 2 µM | 4.13 µM | 3.47 µM | 13.8 µM | 2.01 µM | 4.22 µM | 2.11 µM | 4.67 µM | 4.54 µM | 17.6 µM | 2.76 µM | 9.29 µM | 6.57 µM | 20.2 µM | 2.55 µM | 7.74 µM | 1.65 µM | 3.07 µM | 2.77 µM | 9.14 µM
16 | COc1ccc(-c2nn(-c3cccc(Cl)c3)cc2-c2c(C#N)c(=O)n3[nH]c(-c4ccc(C)o4)nc3c2C#N)cc1 | 2.6 µM | 18.5 µM | 3.46 µM | > 50 µM | 3.54 µM | > 50 µM | 5.47 µM | 11.6 µM | 4.11 µM | > 50 µM | > 50 µM | > 50 µM | 1.55 µM | 10.7 µM | 4.96 µM | 23.1 µM | 5.67 µM | > 50 µM | 7.61 µM | > 50 µM
17 | COc1ccc2cc1Oc1ccc(cc1)CC1c3c(cc(OC)c4c3Oc3cc5c(cc3O4)CCNC5C2)CCN1C (centres undefined) | 1.47 µM | 3.41 µM and 2.82 µM | 1.8 µM | 3.42 µM and 3.23 µM | 1.46 µM | 3.33 µM and 2.85 µM |  | 3.41 µM | 0.288 µM | 0.883 µM | 1.55 µM | 3.62 µM and 3.19 µM | 1.64 µM | 3.7 µM and 3.02 µM |  | 3.27 µM | 1.9 µM | 3.23 µM and 3.69 µM | 1.49 µM | 4.01 µM and 2.81 µM
18 | CC(C)OC(=O)c1cc(NC(=S)OC(C)C)ccc1Cl |  | > 56.2 µM |  | 46.9 µM |  | 44.3 µM |  | 22.2 µM |  | 62.7 µM |  | > 63.4 µM |  | > 51.1 µM |  | 26.6 µM |  | 30.5 µM |  | > 59.7 µM
19 | c1ccc2[nH]c(-c3cscn3)nc2c1 |  | > 100 µM |  | > 100 µM |  | > 100 µM |  | > 100 µM | > 100 µM and 49.1 µM | > 100 µM |  | > 100 µM |  | > 100 µM |  | > 100 µM |  | > 100 µM |  | > 100 µM
20 | CNc1ccc(CSc2ccc(C)cc2)cc1 | 13 µM | > 100 µM | 22.3 µM | > 100 µM | 8.58 µM | > 100 µM | 15.7 µM | 29.3 µM | 11.4 µM | 87.2 µM | 21.4 µM | > 100 µM | 0.178 µM | > 100 µM | 3.62 µM | 23.7 µM | 3.69 µM | 24.5 µM | 34 µM | > 100 µM
